Reference: patent US9796742B2, “Kinase inhibitors” (Respivert Limited, priority 2012, dated 2017)
Where two headings read alike, the source gives them in different places.

Legend:
c-Src = c-Src (Homo sapiens (Human), UniProt P12931); assay: c-Src enzyme inhibition (FRET, Z-LYTE); type: biochemical
Procedure, shortened: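 Z-LYTE FRET peptide assay with enzyme preincubated with compound for 2 h at RT, then 1 h kinase reaction and 1 h protease development. ATP solutions were 800 μM for c-Src and 60 μM for Syk. Inhibition was taken from the coumarin/fluorescein emission ratio, and IC50 from concentration-response curves.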

[1] = test system: intestinal mucosa biopsies from ulcerative colitis patients; assay: Human biopsy assay (ex-vivo cytokine release); type: cell-based
Method: Intestinal mucosa biopsies are obtained from the inflamed regions of the colon of IBD patients. The biopsy material is cut into small pieces (2-3 mm) and placed on steel grids in an organ culture chamber at 37° C. in a 5% CO2/95% O2 atmosphere in serum-free media. DMSO control or test compounds at the desired concentration are added to the tissue and incubated for 24 hr in the organ culture chamber. The supernatant is harvested for determination of IL-6, IL-8, IL-1β and TNFα levels by R&D ELISA. Percentage inhibition of cytokine release by the test compounds is calculated relative to the cytokine release determined for the DMSO control (100%).

GSK3α = GSK3α (Homo sapiens (Human), UniProt P49840); assay: GSK 3α enzyme inhibition (FRET, Z-LYTE; Method 2); type: biochemical
GSK3α, sequence (P49840 whole entry): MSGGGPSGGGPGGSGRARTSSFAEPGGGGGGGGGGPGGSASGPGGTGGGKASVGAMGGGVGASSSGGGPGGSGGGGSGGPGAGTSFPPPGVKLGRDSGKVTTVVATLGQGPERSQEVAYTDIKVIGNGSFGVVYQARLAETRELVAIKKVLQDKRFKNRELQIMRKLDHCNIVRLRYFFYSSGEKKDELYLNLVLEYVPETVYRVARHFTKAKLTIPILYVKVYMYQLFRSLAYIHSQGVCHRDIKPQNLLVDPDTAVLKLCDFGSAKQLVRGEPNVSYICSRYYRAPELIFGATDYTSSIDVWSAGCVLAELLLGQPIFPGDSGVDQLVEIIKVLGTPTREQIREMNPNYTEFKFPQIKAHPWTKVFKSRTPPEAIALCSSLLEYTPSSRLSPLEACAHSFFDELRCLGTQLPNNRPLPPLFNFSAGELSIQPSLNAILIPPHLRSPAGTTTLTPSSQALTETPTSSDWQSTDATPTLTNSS
Procedure, shortened: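 GSK3-α protein preincubated with compound for 105 min, then Z-LYTE FRET peptide and ATP added for 1 h before protease development for 1 h. Phosphorylation taken from coumarin/fluorescein emission ratio; percent inhibition against uninhibited control and IC50 calculated from concentration-response curves.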

d-U937 cells = assay: LPS-induced TNFα/IL-8 release in d-U937 cells; type: cell-based; details: Homo sapiens, dU937, LPS-stimulated d-U937 cells
PBMCs = assay: LPS-induced TNFα/IL-8 release in PBMC cells; type: cell-based; details: Homo sapiens, LPS-stimulated PBMCs
Procedure, shortened: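 Human PBMCs from healthy donors, isolated by density gradient, were pretreated with compound for 2 h and then stimulated with 1 ng/mL LPS (E. coli 0111:B4) for 24 h at 37° C, 5% CO2. Supernatant IL-8 and TNFα were measured by sandwich ELISA, and IC50 was taken from the dose-response curve.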

[2] = test system: TNBS-induced colitis in mice; assay: TNBS-induced colitis in mice; type: in vivo
Method: Non-fasted, 10-12 week old, male BDF1 mice are dosed by oral gavage twice daily with either vehicle (5 mL/kg), reference item (Budesonide 2.5 mg/kg) or test compound (1 or 5 mg/kg) one day before (Day −1) stimulation of the inflammatory response by treatment with 2,4,6-trinitrobenzenesuiphonic acid (TNBS) (15 mg/mL in 50% ethanol/50% saline). On Day 0 of the study TNBS (200 μL) is administered intra-colonically via a plastic catheter followed by BID dosing of the vehicle, reference or test compound for 2 or 4 days. During the study animals are weighed every day and stool observations are made and recorded as a score, based on stool consistency. At the time of sacrifice on Day 2 (or Day 4) the large intestine is removed and the length and weight recorded. Sections of the colon are taken for either MPO analysis to determine neutrophil infiltration or for histopathology involving scoring to determine disease severity.

[3] = 1 μg/ml, 24 hours, DMSO control 100%

c-Src, sequence (P12931 whole entry, looked up): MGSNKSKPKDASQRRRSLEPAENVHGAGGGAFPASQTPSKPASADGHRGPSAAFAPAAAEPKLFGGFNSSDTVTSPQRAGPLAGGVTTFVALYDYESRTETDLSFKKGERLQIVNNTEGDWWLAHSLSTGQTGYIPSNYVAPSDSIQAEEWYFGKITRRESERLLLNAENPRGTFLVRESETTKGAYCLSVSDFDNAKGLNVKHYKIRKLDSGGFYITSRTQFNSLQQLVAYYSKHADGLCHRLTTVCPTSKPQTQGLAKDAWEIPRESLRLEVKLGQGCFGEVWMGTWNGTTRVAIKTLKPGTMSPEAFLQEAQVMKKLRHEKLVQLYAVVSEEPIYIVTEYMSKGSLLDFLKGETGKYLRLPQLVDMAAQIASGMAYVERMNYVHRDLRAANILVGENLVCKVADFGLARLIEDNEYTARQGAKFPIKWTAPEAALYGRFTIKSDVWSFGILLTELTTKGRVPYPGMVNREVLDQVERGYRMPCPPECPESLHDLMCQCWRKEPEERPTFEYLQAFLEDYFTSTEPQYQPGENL

- IC50 (c-Src): 2 nM
- IC50 (GSK3α): 1100 nM
- IC50 (d-U937 cells; IL-8, read-out: IC50 Values for Inhibition of Cytokine Release, dU937 cells IL-8): 0.4 nM
- IC50 (d-U937 cells; TNFα (REC50 relative to BIRB796 per method), read-out: IC50 Values for Inhibition of Cytokine Release, dU937 cells TNFα): 0.2 nM
SMILES: COCCOCCOCCOc1cc(Nc2nccc(Oc3ccc(NC(=O)Nc4cc(C(C)(C)C)nn4-c4cccc(CP(C)(C)=O)c4)c4ccccc34)n2)cc(OC)c1 [Example 60, 1-(3-(tert-Butyl)-1-(3-((dimethylphosphoryl)methyl)phenyl)-1H-pyrazol-5-yl)-3-(4-((2-((3-methoxy-5-(2-(2-(2-methoxyethoxy)ethoxy)ethoxy)phenyl)amino)pyrimidin-4-yl)oxy)-naphthalen-1-yl)urea]
- cytokine (IL-1b, IL-6 and IL-8) release compared to the DMSO control ([1]; 1 μg/mL, 24 hours, biopsies from ulcerative colitis patients): significantly inhibited
- IL-1b release from biopsies of UC patients [1, 3]: 1 ± 2%
- IL-6 release from biopsies of UC patients [1, 3]: 0 ± 0%
- IL-8 release from biopsies of UC patients [1, 3]: 2 ± 4%
- anti-inflammatory effects in biopsies from ulcerative colitis (UC) patients ([1]; ex-vivo human biopsy model): significant anti-inflammatory effects
- IC50 (PBMCs; IL-8, read-out: IC50 Values for Inhibition of Cytokine Release, PBMCs IL-8): 0.9 nM
- IC50 (PBMCs; TNFα, read-out: IC50 Values for Inhibition of Cytokine Release, PBMCs TNFα): 0.6 nM
- TNBS Ulcer grade ([2]; 5 mg/kg oral, conducted over 2 days, vehicle 3.6 ± 0.3 (exp. 1), 4.4 ± 0.2 (exp. 2)): 3.6 ± 0.4
- TNBS LP inflammation ([2]; 5 mg/kg oral, conducted over 2 days, vehicle 3.9 ± 0.3 (exp. 1), 4.5 ± 0.2 (exp. 2)): 2.8 ± 0.4
- activity in in vivo model of colonic inflammation (histopathology analysis) ([2]; conducted over 2 days): significant activity
- inflammatory cell infiltrate in the reticular and laminar propria zone ([2]; dosed orally at 5 mg/kg): marked reduction
- ulcer grade and epithelial repair compared to the vehicle control ([2]; dosed orally at 5 mg/kg): marked improvements
